Data from article PMC8555766, “Paradoxical Potentiation of Acid-Sensing Ion Channel 3 (ASIC3) by Amiloride via Multiple Mechanisms and Sites Within the Channel” (Frontiers in Physiology, 2021).
Positions count from the first letter of the chain named.

Key:
[1] = molecular target: T1, Acid-Sensing Ion Channel 3 (ASIC3) (Rattus norvegicus, UniProt O35240); experiment: whole-cell patch clamp, block of pH 6-evoked currents; assay type: cell-based
T1 construct: Rat ASIC3 in pMT3 vector, expressed in CHO-K1 cells
T1 sequence (O35240 1-533): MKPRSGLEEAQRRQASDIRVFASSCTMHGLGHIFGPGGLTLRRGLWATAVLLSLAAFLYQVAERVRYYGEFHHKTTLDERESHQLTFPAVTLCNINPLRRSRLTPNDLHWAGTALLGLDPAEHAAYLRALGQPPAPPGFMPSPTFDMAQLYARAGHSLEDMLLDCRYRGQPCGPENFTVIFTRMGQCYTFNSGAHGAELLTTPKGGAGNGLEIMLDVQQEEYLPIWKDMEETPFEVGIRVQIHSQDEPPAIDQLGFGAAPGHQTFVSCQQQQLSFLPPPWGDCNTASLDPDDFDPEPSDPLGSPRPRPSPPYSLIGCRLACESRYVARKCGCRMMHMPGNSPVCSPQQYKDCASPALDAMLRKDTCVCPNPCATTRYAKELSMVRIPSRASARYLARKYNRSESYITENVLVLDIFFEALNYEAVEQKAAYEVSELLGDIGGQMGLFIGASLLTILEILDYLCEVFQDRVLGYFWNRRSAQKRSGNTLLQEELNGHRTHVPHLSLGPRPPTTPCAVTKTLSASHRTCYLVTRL

[2] = molecular target: T2, ASIC3 G445C (Rattus norvegicus, UniProt O35240, G445C); experiment: as above; assay type: cell-based
T2 construct: rASIC3 G445C co-expressed with wildtype ASIC3 at a 10:1 ratio in CHO-K1 cells; with wildtype ASIC3 (heteromultimeric channels)
T2 sequence (O35240 1-533 G445C): T1 sequence (O35240 1-533) with G445C
Description: whole-cell patch clamp, block of pH 6-evoked currents on ASIC3 G445C | G445C mutation partially blunted the inhibitory action of amiloride on ASIC3 currents when compared to wildtype ASIC3 channels

Compound `N=C(N)NC(=O)c1nc(Cl)c(N)nc1N` [amiloride] has an IC50 [1] of 18.6 µM and an IC50 [2] of 17.3 µM.
